The ED50 is the dose at which the effect has come halfway, by size or by number of responders. Usually pIC50 stands for the IC50 on a negative log10 scale, so that one unit is a factor of ten.

One test has as its target T1, 5HT1A receptor (Rattus norvegicus, UniProt P19327).
T1 construct: Subcutaneous injection of rats with 8-OH-DPAT spontaneously induces tail movements; from tissue; host or cells: whole living rat (in vivo)
T1 sequence (P19327 1-422): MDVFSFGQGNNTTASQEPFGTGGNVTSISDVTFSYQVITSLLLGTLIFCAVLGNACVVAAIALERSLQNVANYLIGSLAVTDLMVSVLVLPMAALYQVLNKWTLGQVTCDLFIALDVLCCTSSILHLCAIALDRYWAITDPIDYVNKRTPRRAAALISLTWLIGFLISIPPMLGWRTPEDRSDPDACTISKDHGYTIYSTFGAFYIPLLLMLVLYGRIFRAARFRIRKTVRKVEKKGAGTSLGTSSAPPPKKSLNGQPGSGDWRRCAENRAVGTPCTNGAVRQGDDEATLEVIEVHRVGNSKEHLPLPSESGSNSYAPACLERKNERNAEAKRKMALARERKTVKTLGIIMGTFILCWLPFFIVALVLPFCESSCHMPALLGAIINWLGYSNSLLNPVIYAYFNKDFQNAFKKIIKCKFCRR
In words: "Tail-Flicks" test on rats (reduction of 8-OH-DPAT induced tail movements). It is filed as in vivo. The settings on record: sc, tail movements induced by subcutaneous 8-OH-DPAT, read-out: ED50 (amount that reduces 8-OH-DPAT action by 50%). The source says: a) "Tail-Flicks" test on rats
Subcutaneous injection of rats with 8-OH-DPAT spontaneously induces tail movements ("Tail-Flicks"). These movements are reduced in a specific manner by 5HT1A receptor antagonists. The ED50 values, that is to say those amounts of the compounds of the invention that reduce 8-OH-DPAT action by 50%, are listed in Table II.

A further test addresses sigma receptor. In words: Sigma binding test (in vitro), inhibition of [3H] ditolylguanidine binding. Also noted: species or system guinea pig. The procedure: b) Sigma binding test (in vitro)
The affinity of the compounds of the invention to the sigma receptor in brain tissue is evaluated by the degree of inhibition of the binding of a sigma site radioligand in in vitro competition experiments.
The experiment protocol used is that described by WEBER et at. Proc. Nat. Acad. Sci. USA, (1986), 83, 8784-8788.
The ligand is 1,2-di-(2-[5-^3 H]tolyl)guanidine (Dupont de Nemours--55 Ci/mmol) at a final concentration of 2 nM.
The membrane preparation is a suspension of central nervous system microsomes of a guinea pig used at a final concentration of 0.5 mg of prot/ml.
The non-specific fixation is determined in the presence of 10 μM of haloperidol.
The results, given in Table III, to illustrate the invention are expressed at IC50 =K.0.5 (M)

Where [1] appears, read: guinea pig central nervous system microsomes, 0.5 mg of prot/ml, ligand 2 nM, non-specific: 10 μM haloperidol.

pIC50: −log10 of the molar value. Where a name gives a salt, the structure may show the parent alone. Read-outs that look alike come from different tables or passages of the source.

As for `COC(=O)N(C)C1CCN(CC2Cc3ccccc32)CC1` (stereo not drawn) [Example 8, Methyl [1-benzocyclobuten-1-ylmethyl)-piperid-4-yl]-N-methylcarbamate hydrochloride], the ED50 at 5HT1A receptor turned out to be 1.25 mg/kg.

As for `CCN(C(=O)OC)C1CCN(CC2Cc3ccccc32)CC1` (stereo not drawn) [Example 14, Methyl N-[1-(benzocyclobuten-1-ylmethyl)-piperid-4-yl]-N-ethylcarbamate hydrochloride], the ED50 at 5HT1A receptor was 0.02 mg/kg. On the same count and under the same terms, then `CCN(C(C)=O)C1CCN(CC2Cc3ccccc32)CC1` (stereo not drawn) [Example 21, N-[1-(benzocyclobuten-1-ylmethyl)-piperid-4-yl]-N-ethylacetamide hydrochloride], with 0.63 mg/kg. As to `CC(C)COC(=O)N(C)C1CCN(CC2Cc3ccccc32)CC1` (stereo not drawn) [Example 15, Isobutyl N-[1-(benzocyclobuten-1-ylmethyl)-piperid-4-yl]-N-methylcarbamate fumarate], the ED50 at 5HT1A receptor is 1.25 mg/kg. This molecule gave a pIC50 at sigma receptor (setting [1]) of 7.00. In the case of `CCOC(=O)N(CC)C1CCN(CC2Cc3ccccc32)CC1` (stereo not drawn) [Example 13, Ethyl N-[1-(benzocyclobuten-1-ylmethyl)-piperid-4-yl]-N-ethylcarbamate hydrochloride], the ED50 at 5HT1A receptor was 1.25 mg/kg. The same measure, in the same setting: the same measure for `CCOC(=O)N(C)C1CCN(CC2Cc3ccccc32)CC1` (stereo not drawn) [Example 23, Ethyl N-[1-(benzocyclobuten-1-ylmethyl)-piperid-4-yl]-N-methylcarbamate hydrochloride]: 2.5 mg/kg; for `CN(C(=O)OC(C)(C)C)C1CCN(CC2Cc3ccccc32)CC1` (stereo not drawn) [Example 11, Tert-butyl N-[1-(benzocyclobuten-1-ylmethyl)-piperid-4-yl]-N-methylcarbamate hydrochl oride]: 2.5 mg/kg. `CN(C(=O)Oc1ccccc1)C1CCN(CC2Cc3ccccc32)CC1` (stereo not drawn) [Example 12, Phenyl N-[1-(benzocyclobuten-1-ylmethyl)-piperid-4-yl]-N-methylcarbamate hydrochloride] gave a pIC50 at sigma receptor of 7.52. Regarding `CN(C(=O)OCc1ccccc1)C1CCN(CC2Cc3ccccc32)CC1` (stereo not drawn) [Example 19, Benzyl N-[1-(benzocyclobuten-1-ylmethyl)-piperid-4-yl]-N-methylcarbamate hydrochloride], the pIC50 at sigma receptor (setting [1]) is 7.52. In the case of `CCOC(=O)N(C)C1CCN(CC2Cc3c2ccc2c3OCO2)CC1` (stereo not drawn) [Example 28, Ethyl N-{1-[(3,4-methylenedioxybenzocyclobuten-1-yl)methyl[-piperid-4-yl}-N-methylcarbamate fumarate], the ED50 on 5HT1A receptor stood at 2.5 mg/kg.

Turning to `CCCOC(=O)N(C)C1CCN(CC2Cc3ccccc32)CC1` (stereo not drawn) [Example 9, Propyl N-[1-(benzocyclobuten-1-ylmethyl)-piperid-4-yl]-N-methylcarbamate hydrochloride], the ED50 at 5HT1A receptor worked out at 0.31 mg/kg. Moreover, the pIC50 at sigma receptor (setting [1]) was 7.52.

`CCCOC(=O)N(C)C1CCN(C2Cc3ccccc3C2)CC1` [Example 44, Propyl N-[1-(indan-2-yl)-piperid-4-yl]-N-methylcarbamate]: the ED50 at 5HT1A receptor was found to be 2.5 mg/kg. This molecule also showed a pIC50 at sigma receptor (setting [1]) of 7.40. In the case of `CC(C)COC(=O)N(C)C1CCN(C2Cc3ccccc3C2)CC1` [Example 43, Isobutyl N-[1-(indan-2-yl)-piperid-4-yl]-N-methylcarbamate fumarate], the pIC50 at sigma receptor (setting [1]) is 8.40. For the molecule `C=COC(=O)N(C)C1CCN(CC2Cc3ccccc32)CC1` (racemic) [Example 42, (R,S)-vinyl N-[1-(benzocyclobuten-1ylmethyl)-piperid-4-yl]-N-methylcarbamate hydrochlo ride], on 5HT1A receptor, the ED50 came to 1.25 mg/kg. This molecule also gave a pIC50 on sigma receptor (setting [1]) of 7.30.

(Values after US5214055A, “Aminopiperidine 4-oxo-4H-chromen-2-yl compounds” (Adir et Compagnie, priority 1990, dated 1993).)
